#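 Each compound was tested at five concentrations against cells in 96-well plates for 48 hours. GI50 marks 50% less growth. The concentration for full growth arrest is given as TGI.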
# Assays:
# Test in all cases: inhibition of tumour cell growth, NCI panel, 48 h
# [1] = system: 786-0 renal
# [2] = system: A498 renal
# [3] = system: A549 NSCLC
# [4] = system: ACHN renal
# [5] = system: CAKI-1 renal
# [6] = system: CCRF-CEM leukemia
# [7] = system: COLO 205 colon
# [8] = system: DU-145 prostate
# [9] = system: EKVX NSCLC
# [10] = system: HCC-2998 colon
# [11] = system: HCT-116 colon
# [12] = system: HCT-15 colon
# [13] = system: HL-60(TB) leukemia
# [14] = system: HOP-62 NSCLC
# [15] = system: HOP-92 NSCLC
# [16] = system: HS 578T breast
# [17] = system: HT29 colon
# [18] = system: IGROV1 ovarian
# [19] = system: K-562 leukemia
# [20] = system: KM12 colon
# [21] = system: LOX IMVI melanoma
# [22] = system: M14 melanoma
# [23] = system: MALME-3M melanoma
# [24] = system: MCF7 breast
# [25] = system: MDA-MB-231 breast
# [26] = system: MDA-MB-435
# [27] = system: MDA-N
# [28] = system: MOLT-4 leukemia
# [29] = system: NCI-H226 lung
# [30] = system: NCI-H23 lung
# [31] = system: NCI-H460 lung
# [32] = system: NCI-H522 lung
# [33] = system: NCI/ADR-RES ovarian
# [34] = system: OVCAR-3 ovarian
# [35] = system: OVCAR-5 ovarian
# [36] = system: PC-3 prostate
# [37] = system: RPMI-8226 leukemia
# [38] = system: RXF 393 renal
# [39] = system: SF-268 CNS
# [40] = system: SF-295 CNS
# [41] = system: SF-539 CNS
# [42] = system: SK-MEL-2 melanoma
# [43] = system: SK-MEL-28 melanoma
# [44] = system: SK-MEL-5 melanoma
# [45] = system: SK-OV-3 ovarian
# [46] = system: SN12C renal
# [47] = system: SNB-19 CNS
# [48] = system: SR leukemia
# [49] = system: SW-620 colon
# [50] = system: T-47D breast
# [51] = system: TK-10 renal
# [52] = system: U251 CNS
# [53] = system: UACC-257 melanoma
# [54] = system: UACC-62 melanoma
# [55] = system: UO-31 renal
# [56] = system: OVCAR-4 ovarian
# [57] = system: OVCAR-8 ovarian
# [58] = system: SNB-75 CNS
# [59] = system: BT-549 breast
compound,measurement,setting,value
COc1ccc(CCN2CCOCC2)cc1,TGI,[1],> 100 µM
same,TGI,[2],> 100 µM
same,TGI,[3],> 100 µM
same,TGI,[4],> 100 µM
same,TGI,[5],> 100 µM
same,TGI,[6],> 100 µM
same,TGI,[7],> 100 µM
same,TGI,[8],> 100 µM
same,TGI,[9],> 100 µM
same,TGI,[10],> 100 µM
same,TGI,[11],> 100 µM
same,TGI,[12],> 100 µM
same,TGI,[13],> 100 µM
same,TGI,[14],> 100 µM
same,TGI,[15],> 100 µM
same,TGI,[16],> 100 µM
same,TGI,[17],> 100 µM
same,TGI,[18],> 100 µM
same,TGI,[19],> 100 µM
same,TGI,[20],> 100 µM
same,TGI,[21],> 100 µM
same,TGI,[22],> 100 µM
same,TGI,[23],> 100 µM
same,TGI,[24],> 100 µM
same,TGI,[25],> 100 µM
same,TGI,[26],> 100 µM
same,TGI,[27],> 100 µM
same,TGI,[28],> 100 µM
same,TGI,[29],> 100 µM
same,TGI,[30],> 100 µM
same,TGI,[31],> 100 µM
same,TGI,[32],> 100 µM
same,TGI,[33],> 100 µM
same,TGI,[34],> 100 µM
same,TGI,[35],> 100 µM
same,TGI,[36],> 100 µM
same,TGI,[37],> 100 µM
same,TGI,[38],> 100 µM
same,TGI,[39],> 100 µM
same,TGI,[40],> 100 µM
same,TGI,[41],> 100 µM
same,TGI,[42],> 100 µM
same,TGI,[43],> 100 µM
same,TGI,[44],> 100 µM
same,TGI,[45],> 100 µM
same,TGI,[46],> 100 µM
same,TGI,[47],> 100 µM
same,TGI,[48],> 100 µM
same,TGI,[49],> 100 µM
same,TGI,[50],> 100 µM
same,TGI,[51],> 100 µM
same,TGI,[52],> 100 µM
same,TGI,[53],> 100 µM
same,TGI,[54],> 100 µM
same,TGI,[55],> 100 µM
CC1(C)N=C(/C(C#N)=[N+](/[O-])C(=O)c2ccccc2)C(C)(C)N1O,TGI,[1],> 100 µM
same,TGI,[3],> 100 µM
same,TGI,[4],> 100 µM
same,TGI,[5],> 100 µM
same,TGI,[6],> 100 µM
same,TGI,[7],> 100 µM
same,TGI,[8],> 100 µM
same,TGI,[9],> 100 µM
same,TGI,[10],> 100 µM
same,TGI,[11],> 100 µM
same,TGI,[12],> 100 µM
same,TGI,[13],> 100 µM
same,TGI,[14],> 100 µM
same,TGI,[15],> 100 µM
same,TGI,[16],> 100 µM
same,TGI,[17],> 100 µM
same,TGI,[18],> 100 µM
same,TGI,[19],> 100 µM
same,TGI,[20],> 100 µM
same,TGI,[21],> 100 µM
same,TGI,[22],> 100 µM
same,TGI,[23],> 100 µM
same,TGI,[24],> 100 µM
same,TGI,[25],> 100 µM
same,TGI,[26],> 100 µM
same,TGI,[27],> 100 µM
same,TGI,[28],> 100 µM
same,TGI,[29],> 100 µM
same,TGI,[30],> 100 µM
same,TGI,[31],> 100 µM
same,TGI,[33],> 100 µM
same,TGI,[34],> 100 µM
same,TGI,[56],> 100 µM
same,TGI,[35],> 100 µM
same,TGI,[57],> 100 µM
same,TGI,[36],> 100 µM
same,TGI,[37],> 100 µM
same,TGI,[38],> 100 µM
same,TGI,[39],> 100 µM
same,TGI,[40],> 100 µM
same,TGI,[41],> 100 µM
same,TGI,[42],> 100 µM
same,TGI,[43],> 100 µM
same,TGI,[44],> 100 µM
same,TGI,[45],> 100 µM
same,TGI,[46],> 100 µM
same,TGI,[47],> 100 µM
same,TGI,[58],> 100 µM
same,TGI,[48],> 100 µM
same,TGI,[49],> 100 µM
same,TGI,[50],> 100 µM
same,TGI,[51],> 100 µM
same,TGI,[52],> 100 µM
same,TGI,[53],> 100 µM
same,TGI,[54],> 100 µM
same,TGI,[55],> 100 µM
C=C1C(=O)O[C@H]2[C@H]1CC/C(COC(=O)NCc1cccc(OC)c1)=C\CC[C@@]1(C)O[C@@H]21,GI50,[1],1.84 µM
same,TGI,[1],3.61 µM
same,GI50,[2],10.5 µM
same,TGI,[2],22.4 µM
same,GI50,[3],3.1 µM
same,TGI,[3],12.8 µM
same,GI50,[4],1.17 µM
same,TGI,[4],2.41 µM
same,GI50,[59],1.51 µM
same,TGI,[59],3.21 µM
same,GI50,[5],1.62 µM
same,TGI,[5],3.62 µM
same,GI50,[6],1.14 µM
same,TGI,[6],4.76 µM
same,GI50,[7],1.68 µM
same,TGI,[7],3.41 µM
same,GI50,[8],1.58 µM
same,TGI,[8],3.04 µM
same,GI50,[9],2 µM
same,TGI,[9],5.81 µM
same,GI50,[10],15.3 µM
same,TGI,[10],31.1 µM
same,GI50,[11],1.27 µM
same,TGI,[11],2.76 µM
same,GI50,[12],1.38 µM
same,TGI,[12],2.82 µM
same,GI50,[13],1.21 µM
same,TGI,[13],4.51 µM
same,GI50,[14],13.2 µM
same,TGI,[14],28.3 µM
same,GI50,[15],1.32 µM
same,TGI,[15],2.96 µM
same,GI50,[16],13 µM
same,TGI,[16],37.8 µM
same,GI50,[17],1.79 µM
same,TGI,[17],3.87 µM
same,GI50,[18],2.76 µM
same,TGI,[18],8.4 µM
same,GI50,[19],1.93 µM
same,TGI,[19],6.79 µM
same,GI50,[20],9.98 µM
same,TGI,[20],25.3 µM
same,GI50,[21],1.51 µM
same,TGI,[21],3.01 µM
same,GI50,[22],2.08 µM
same,TGI,[22],5.16 µM
same,GI50,[23],1.74 µM
same,TGI,[23],3.53 µM
same,GI50,[24],2.36 µM
same,TGI,[24],8.97 µM
same,GI50,[25],1.95 µM
same,TGI,[25],4.22 µM
same,GI50,[26],1.5 µM
same,TGI,[26],3.22 µM
same,GI50,[28],2.38 µM
same,TGI,[28],7.19 µM
same,GI50,[29],12.1 µM
same,TGI,[29],27.8 µM
same,GI50,[30],3.07 µM
same,TGI,[30],10.3 µM
same,GI50,[31],3.3 µM
same,TGI,[31],13.4 µM
same,GI50,[32],1.22 µM
same,TGI,[32],2.8 µM
same,GI50,[33],3.07 µM
same,TGI,[33],12.3 µM
same,GI50,[34],1.6 µM
same,TGI,[34],3.29 µM
same,GI50,[56],2.61 µM
same,TGI,[56],11.1 µM
same,GI50,[35],2.17 µM
same,TGI,[35],5.04 µM
same,GI50,[57],2.03 µM
same,TGI,[57],5.63 µM
same,GI50,[36],2.26 µM
same,TGI,[36],6.07 µM
same,GI50,[37],1.98 µM
same,TGI,[37],6.4 µM
same,GI50,[38],1.38 µM
same,TGI,[38],2.84 µM
same,GI50,[39],3.21 µM
same,TGI,[39],12.1 µM
same,GI50,[40],9.76 µM
same,TGI,[40],21.7 µM
same,GI50,[41],1.55 µM
same,TGI,[41],2.98 µM
same,GI50,[42],11.4 µM
same,TGI,[42],25 µM
same,GI50,[43],1.84 µM
same,TGI,[43],3.82 µM
same,GI50,[44],1.64 µM
same,TGI,[44],3.2 µM
same,GI50,[45],14.9 µM
same,TGI,[45],28.2 µM
same,GI50,[46],1.77 µM
same,TGI,[46],4.4 µM
same,GI50,[47],6.42 µM
same,TGI,[47],20 µM
same,GI50,[58],12.2 µM
same,TGI,[58],24.7 µM
same,GI50,[48],1.3 µM
same,TGI,[48],12 µM
same,GI50,[49],1.52 µM
same,TGI,[49],3.28 µM
same,GI50,[50],2.31 µM
same,TGI,[50],6.38 µM
same,GI50,[51],1.85 µM
same,TGI,[51],3.87 µM
same,GI50,[52],3.65 µM
same,TGI,[52],14.9 µM
same,GI50,[53],1.96 µM
same,TGI,[53],5.79 µM
same,GI50,[54],1.91 µM
same,TGI,[54],4.24 µM
same,GI50,[55],1.58 µM
same,TGI,[55],2.94 µM
